What is called melting point is the temperature, or range, at which the solid turns liquid.

Among the data in US8486996B2, “Aroylfuranes and aroylthiophenes” (Basilea Pharmaceutica AG, priority 2006, dated 2013) are EC50, IC50 and melting point values, retold here.

The nature of series [1]: Hoechst 33342 nuclear staining (48 h read-out). The series is classed as cell-based. In a few lines: (§1)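 Adherent cells pre-spread 24 h before dosing, suspension cells dosed at seeding; compounds at 0.001 μM-10 μM final, 48 h at culture conditions. Hoechst 33342 (2-5 μg/ml) added for 30 min, then fluorescence microscopy scoring of apoptotic nuclear fraction and apoptosis-specific morphology, reported as scores A-D.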

In series [2] the test system is tumor cells. The series is described as follows: Hoechst 33342 nuclear staining (48 h read-out). In kind it is cell-based. In a few lines: as §1
Series [3] in a line: MTS proliferation assay (72 h read-out). The series is classed as cell-based. To be noted: Homo sapiens, MRC5 cells. The gist of the method:
(§2)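 Viability was read by MTS absorbance at 492 nm after 3 h with reagent. Before that, cells plated a day earlier at 1.5×10^3–10^4 per well had been incubated with test compound at final concentrations of 0.001–10 μM for 72 h; activity is given as category scores A–D.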
In general terms: Formazan colour is commonly taken as a measure of viable cells.

The test system of series [4] is tumor cells. In words: MTS proliferation assay (72 h read-out). The series is classed as cell-based. The gist of the method: as §2
Series [5] can be described thus: Mitochondrial membrane potential, JC-1 (read-out 48 h). The series is classed as cell-based. The note with it: PBL, JC-1, 48 h. The gist of the method: (§3)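 Tumor cells were treated with test compounds (adherent cells after 24 h of attachment, suspension cells immediately), medium holding up to 5% DMSO. After 48 h, JC-1 (2-5 μg/ml in added medium) was applied for 30 min. Fluorescence microscopy (FITC/TRITC filters) scored the fraction of cells with dissipated mitochondrial membrane potential as categories A-D.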

For series [6], the system named is tumor cells. The description is as above. The series is classed as cell-based. The note with it: JC-1, 48 h. The gist of the method: as §3
In a further series the test system is HeLa. The series is described as follows: Colony Forming Units (read-out 6 days), HeLa. The series is classed as cell-based, human. The note with it: Homo sapiens, 144 h, colonies containing more than 30 cells, read-out: Colony Forming Units, score based on IC50, HeLa. The procedure: (§4) Appropriate numbers of cells (100-150 cells, dependent on the cell type) are being seeded out in 1 ml complete medium into 6-well plates and allowed to attach for 48 h. The compounds are added after 48 h in 500 μl solution. The concentrations are in the range of 0.001 μM-3 μM. Control plates receive the same volume of medium containing the appropriate amount of DMSO. The plates are incubated for 5-7 days at cell culture conditions and subsequently scored for growth of colonies (containing more than 30 cells) by using a microscope.

The next series deals with H460. In words: Colony Forming Units (read-out 6 days), H460. The series is classed as cell-based, human. The note with it: Homo sapiens, NCI-H460, 144 h, colonies containing more than 30 cells, read-out: Colony Forming Units, score based on IC50, H460. The procedure: as §4
Setting [7] is: Homo sapiens, MRC5 cells, read-out: Hoechst 33342 nuclear staining EC50, MRC5.
[8] abbreviates: Homo sapiens, HeLa cells, read-out: Hoechst 33342 nuclear staining EC50, HeLa.
The mark [9] stands for this setting: Homo sapiens, Jurkat cells, read-out: Hoechst 33342 nuclear staining EC50, Jurkat.
[10] abbreviates: Jily cells, read-out: Hoechst 33342 nuclear staining EC50, Jily.
The mark [11] stands for this setting: Homo sapiens, HT-1080, HT1080 cells, read-out: MTS proliferation assay IC50, HT1080.
The mark [12] stands for this setting: Homo sapiens, HeLa cells, read-out: MTS proliferation assay IC50, HeLa.
Where [13] appears, read: Homo sapiens, Jurkat cells, read-out: MTS proliferation assay IC50, Jurkat.
[14] abbreviates: Jily cells, read-out: MTS proliferation assay IC50, Jily.
The mark [15] stands for this setting: Homo sapiens, HeLa cells, read-out: Mitochondrial membrane potential (read-out 48 h) HeLa.
[16] abbreviates: Homo sapiens, Jurkat cells, read-out: Mitochondrial membrane potential (read-out 48 h) Jurkat.
Where [17] appears, read: Homo sapiens, MCF7 cells, read-out: Mitochondrial membrane potential (read-out 48 h) MCF7.
The mark [18] stands for this setting: Jily cells, read-out: Mitochondrial membrane potential (read-out 48 h) Jily.

Read-outs that look alike come from different tables or passages of the source. Where only a bound is given, the exact number is not on record here.

Take `CC(C)Oc1ccccc1C(=O)c1oc2ccc(Cl)cc2c1N` [Example 9]: the melting point worked out at 110 °C. Further, the EC50 in series [1] (setting [7]) is 100 to 1000 nM. The EC50 with tumor cells [2] (setting [8]) was 100 to 1000 nM. For the same compound, the EC50 with tumor cells [2] (setting [9]) is 10 to 100 nM. Moreover, the EC50 in the series with tumor cells [2] (setting [10]) fell in the range of 100 to 1000 nM. In addition, in series [3], the IC50 lay in the range of 100 to 1000 nM. In addition, the IC50 in the series on tumor cells [4] (setting [11]) lay in the range of 10 to 100 nM. In addition, in the series with tumor cells [4] (setting [12]), the IC50 fell in the range of 100 to 1000 nM. In addition, the IC50 in the series on tumor cells [4] (setting [13]) fell in the range of 10 to 100 nM. In addition, the IC50 in the series on tumor cells [4] (setting [14]) was 10 to 100 nM. Further, the EC50 in series [5] is greater than 1000 nM. Besides, the EC50 with tumor cells [6] (setting [15]) lay in the range of 100 to 1000 nM. The EC50 in the series on tumor cells [6] (setting [16]) lay in the range of 10 to 100 nM. Besides, the EC50 with tumor cells [6] (setting [17]) fell in the range of 100 to 1000 nM. The EC50 in the series with tumor cells [6] (setting [18]) is 100 to 1000 nM. The IC50 in the series with HeLa was 10 to 100 nM. Besides, the IC50 in the series with H460 was 10 to 100 nM.

In the case of `CCOc1ccc(OC)cc1C(=O)c1oc2ccc(Cl)cc2c1N` [Example 12], the melting point lay in the range of 124 to 125 °C. Besides, in series [1] (setting [7]), the EC50 is 100 to 1000 nM. The EC50 in the series on tumor cells [2] (setting [8]) was less than 10 nM. Further, the EC50 with tumor cells [2] (setting [9]) is less than 10 nM. In addition, the EC50 in the series on tumor cells [2] (setting [10]) was less than 10 nM. Besides, the IC50 in series [3] is less than 10 nM. Moreover, the IC50 with tumor cells [4] (setting [11]) was less than 10 nM. Moreover, the IC50 in the series with tumor cells [4] (setting [12]) fell in the range of 10 to 100 nM. Besides, the IC50 with tumor cells [4] (setting [13]) is less than 10 nM. Further, the IC50 in the series with tumor cells [4] (setting [14]) is less than 10 nM. In addition, in series [5], the EC50 is greater than 1000 nM. Also, in the series on tumor cells [6] (setting [15]), the EC50 fell in the range of 10 to 100 nM. For the same compound, in the series with tumor cells [6] (setting [16]), the EC50 is less than 10 nM. The EC50 in the series on tumor cells [6] (setting [17]) was in the range of 10 to 100 nM. Moreover, the EC50 with tumor cells [6] (setting [18]) is less than 10 nM. The IC50 in the series with HeLa lay within 10 to 100 nM. Further, the IC50 with H460 was less than 10 nM.

`CCCOc1ccc(OC)cc1C(=O)c1oc2ccc(Cl)cc2c1N` [Example 14] displayed a melting point of 95 to 97 °C. Also, the EC50 in [1] (setting [7]) lay within 10 to 100 nM. The EC50 in the series with tumor cells [2] (setting [8]) lay in the range of 10 to 100 nM. In addition, the EC50 in the series on tumor cells [2] (setting [9]) is 10 to 100 nM. For the same compound, in the series on tumor cells [2] (setting [10]), the EC50 was in the range of 10 to 100 nM. The IC50 in [3] was in the range of 10 to 100 nM. In the series with tumor cells [4] (setting [11]), the IC50 was in the range of 10 to 100 nM. For the same compound, in the series on tumor cells [4] (setting [12]), the IC50 is 10 to 100 nM. Also, in the series on tumor cells [4] (setting [13]), the IC50 is less than 10 nM. Moreover, the IC50 in the series with tumor cells [4] (setting [14]) was less than 10 nM. Further, the EC50 in series [5] is greater than 1000 nM. For the same compound, the EC50 in the series with tumor cells [6] (setting [15]) lay in the range of 10 to 100 nM. Besides, the EC50 with tumor cells [6] (setting [16]) fell in the range of 10 to 100 nM. Moreover, in the series on tumor cells [6] (setting [17]), the EC50 lay in the range of 10 to 100 nM. For the same compound, in the series on tumor cells [6] (setting [18]), the EC50 was in the range of 10 to 100 nM. For the same compound, the IC50 in the series with HeLa lay within 10 to 100 nM. In addition, the IC50 with H460 was in the range of 10 to 100 nM.

`COc1ccc(OC(C)C)c(C(=O)c2oc3ccc(Cl)cc3c2N)c1` [Example 15] displayed a melting point of 131 to 132 °C. Besides, the EC50 in [1] (setting [7]) is 100 to 1000 nM. Moreover, the EC50 in the series with tumor cells [2] (setting [8]) lay in the range of 100 to 1000 nM. For the same compound, the EC50 in the series on tumor cells [2] (setting [9]) was 10 to 100 nM. Further, the EC50 with tumor cells [2] (setting [10]) was 10 to 100 nM. Moreover, the IC50 in series [3] lay within 10 to 100 nM. In addition, the IC50 with tumor cells [4] (setting [11]) lay in the range of 10 to 100 nM. Further, the IC50 with tumor cells [4] (setting [12]) lay within 100 to 1000 nM. Moreover, the IC50 with tumor cells [4] (setting [13]) was 10 to 100 nM. Also, in the series on tumor cells [4] (setting [14]), the IC50 is 10 to 100 nM. In series [5], the EC50 is greater than 1000 nM. In addition, in the series with tumor cells [6] (setting [15]), the EC50 fell in the range of 100 to 1000 nM. The EC50 with tumor cells [6] (setting [16]) is 10 to 100 nM. Further, the EC50 in the series on tumor cells [6] (setting [17]) fell in the range of 100 to 1000 nM. The EC50 with tumor cells [6] (setting [18]) lay within 100 to 1000 nM. The IC50 in the series on HeLa fell in the range of 10 to 100 nM. Besides, the IC50 in the series on H460 is 10 to 100 nM.

Regarding `CCOc1ccccc1C(=O)c1oc2cnc(C)cc2c1N` [Example 30], the melting point is 168 °C. Moreover, in [1] (setting [7]), the EC50 was greater than 1000 nM. In addition, in series [1] (PBL, read-out: Hoechst 33342 nuclear staining EC50, PBL), the EC50 was greater than 1000 nM. In the series with tumor cells [2] (setting [8]), the EC50 was 100 to 1000 nM. Moreover, the EC50 with tumor cells [2] (setting [9]) is 100 to 1000 nM. The EC50 in the series on tumor cells [2] (setting [10]) was 100 to 1000 nM. Further, the IC50 in series [3] is greater than 1000 nM. Moreover, the IC50 in the series with tumor cells [4] (setting [11]) lay in the range of 100 to 1000 nM. The IC50 with tumor cells [4] (setting [12]) lay within 100 to 1000 nM. In the series with tumor cells [4] (setting [13]), the IC50 fell in the range of 100 to 1000 nM. The IC50 in the series with tumor cells [4] (setting [14]) lay in the range of 100 to 1000 nM. In addition, in series [5], the EC50 is greater than 1000 nM. The EC50 in the series with tumor cells [6] (setting [15]) was 100 to 1000 nM. In the series with tumor cells [6] (setting [16]), the EC50 was 100 to 1000 nM. Moreover, the EC50 with tumor cells [6] (setting [17]) was greater than 1000 nM. In the series on tumor cells [6] (setting [18]), the EC50 lay in the range of 100 to 1000 nM.
